According to US20140336218A1, “ARFORMOTEROL AND TIOTROPIUM COMPOSITIONS AND METHODS FOR USE” (priority 2008, published 2014):

How the values were obtained:
COPD patients [1] = assay: Spirometry (FEV1, FVC) in 2-week randomized, double dummy, parallel group clinical trial; format: in vivo, human
Description: (§1) This was a 2-week, prospective, multi-center (34 sites), randomized, modified blind, double dummy, parallel group study designed to evaluate the efficacy and safety of the combination of arformoterol 15 μg BID and tiotropium 18 μg QD (dosed sequentially) versus the individual mono-therapies in the treatment of COPD patients. The study was conducted according to the principles established by the Declaration of Helsinki (see, e.g., World Medical Association Declaration of Helsinki. Recommendations guiding physicians in biomedical research involving human subjects. JAMA 1997; 277:925-926.). Appropriate Institutional Review boards approved the protocol and written informed consent was obtained from the patients.
All patients had non-asthmatic COPD (including emphysema and/or chronic bronchitis). […] They also were required to have a pre-bronchodilator baseline pulmonary function of FEV1>0.7 L, FEV1/FVC ratio of ≦70%, and FEV1≦65% predicted. Patients were excluded if they had life-threatening or unstable respiratory status within 30 days of the screening visit. Patients who changed their prescribed dose or type of COPD medication within 14 days prior to screening or who had ever used tiotropium bromide inhalation powder were excluded.
(§2) Eligible patients were randomized to receive one of three treatments for 14 days: nebulized arformoterol 15 μg (Brovana®, Sepracor Inc., Marlborough, Mass.) BID and placebo DPI QD, nebulized placebo BID and tiotropium 18 μg (Spriva® HandiHaler® Boehringer Ingelheim, Ridgefield, Conn.) DPI QD, or nebulized arformoterol 15 μg BID and tiotropium 18 μg DPI QD. The nebulized drug was administered first using the PARI LC Plus® nebulizer driven by the Duraneb 3000® compressor (Pari: Pari Respiratory Equipment Inc., Midlothian, Va.) at a flow rate of 3.3 L/minute followed (within 5 minutes) by the DPI administration (HandiHaler®). The tiotropium and placebo DPI capsules were identical in size and shape but differed in color.
At week 0 and week 2, medical event calendars and blood samples were collected and vital signs and heart measurements analyzed. At week 0, spirometry was performed pre-morning dose, immediately (within 5 minutes) and at 30 minutes, 1, 2, 4, 6, 8, 10, and 12 hours post-first dose. After the 12-hour pulmonary function test patients self-administered the evening dose of study medication. At week 2, serial spirometry was also performed as at week 0, as well as immediately (within 5 minutes) following the evening dose (administered 12 hours after the morning dose) and 12.5, 13, 14, 16, 23, and 24 hours post-morning dose. Inspiratory capacity was evaluated pre-dose and at 2 hours post-morning dose at week 0, and pre-dose and 2, 11, 14, and 24 hours post-morning dose at week 2. All inspiratory capacity measurements were the mean of acceptable inspiratory capacity maneuvers, two of which were reproducible. Prior to an inspiratory capacity maneuver a patient had to have a stable expiratory level for about 10 breaths. Once the stable level was achieved, at the end of exhalation of a normal breath the patient was asked to make a steady and full inhalation at normal inspiratory flow rates until the lungs were completely full, and then to exhale at a normal rate.
All pulmonary function values used were the highest among the three acceptable maneuvers. The Investigator ensured that all spirometry was performed in accordance with the American Thoracic Society/European Respiratory Society Standardisation of Spirometry guidelines (see, e.g., Miller M R, Hankinson J, Brusasco V, Burgos F, Casaburi R, Coates A, et al. Standardisation of spirometry. Eur Respir J 2005; 26:319-338; herein incorporated in its entirety by reference). Centralized over-reading of spirometry and inspiratory capacity pulmonary function measures were used for quality control.

COPD patients [2] = assay: Rescue medication (levalbuterol MDI) use in 2-week clinical trial; format: in vivo, human
Description: as §1
During the study period, the use of LABAs or long-or short-acting anticholinergic bronchodilators (except for the study medication) was prohibited. Use of oral and inhaled corticosteroids was allowed as long as patients were on a stable dosing regimen for at least 14 days prior to study entry that was maintained throughout the study. Patients were required to withhold oral corticosteroids for at least 24 hours prior to pulmonary function testing. Leukotriene modifiers and methylxanthines were not allowed for at least 7-days prior to study entry. Levalbuterol MDI (Xopenex® Sepracor Inc., Marlborough, Mass.) was supplied and used as-needed for rescue medications for acute bronchospasm and acute treatment of COPD symptoms throughout the trial. Patients were instructed to withhold the use of rescue medication for ≧6 hours prior to each clinic visit.
At the screening visit, baseline values were obtained for COPD symptoms, Modified Medical Research Council (MMRC) Dyspnea Scale, heart rate, vital signs, and pulmonary function tests. Medical event calendars and medication logs that were to be completed daily, and rescue medication were also dispensed. The medication logs were used to assess compliance by monitoring the number of UDV/DPI doses taken.
as §2

COPD patients [3] = assay: Adverse events in 2-week clinical trial; conditions: ITT, 2 weeks of treatment
Description: as §1, §2
Descriptive statistics were calculated by treatment for baseline characteristics and each efficacy parameter. Adverse events were summarized using counts and percentages. All adverse events were coded using MedDRA (Medical Dictionary for Regulatory Activities (see, e.g., MedDRA and MSSO. The medical dictionary for regulatory activities 2008). A COPD exacerbation was pre-defined as an increase in symptoms that necessitated any change in baseline medication other than bronchodilators (e.g. anti-inflammatory agents, antibiotics, supplemental oxygen therapy, etc.) or caused the patient to require additional medical attention (hospitalization, emergency room visit, etc.).

[4] = ITT, change from baseline at week 2
[5] = ITT, week 2, combined therapy versus the mono-therapy
[6] = baseline percent predicted FEV1 <50%, week 2, combined versus the mono-therapy
[7] = baseline percent predicted FEV1 <50%, week 2 from study baseline
[8] = baseline percent predicted FEV1 ≧50%, week 2, combined versus the mono-therapy
[9] = baseline percent predicted FEV1 ≧50%, week 2 from study baseline
[10] = <50% percent predicted FEV1, changes in levalbuterol MDI use at week 2
[11] = ITT, week 2, change from baseline, levalbuterol rescue
[12] = ≧50% percent predicted FEV1, changes in levalbuterol MDI use at week 2

C[N+]1(C)[C@@H]2C[C@@H](OC(=O)C(O)(c3cccs3)c3cccs3)C[C@H]1[C@@H]1O[C@@H]12 [Tiotropium]
Peak Change in FEV1 over 12 hours, mean (SD) (COPD patients [1]; [4]): 0.27 (0.23) L
Peak change in FVC over 12 hours, mean (SD) (COPD patients [1]; [4]): 0.40 (0.34) L
Change in FEV1AUC0-24, mean (SD) (COPD patients [1]; ITT, change from baseline at week 2, time normalized): 0.08 (0.20) L
Difference between combined therapy and mono-therapies in change in FEV1AUC0-24, LS mean (COPD patients [1]; [5]): 0.14 L
Difference between combined therapy and mono-therapies in change in trough FEV1, LS mean (COPD patients [1]; [5]): 0.07 L
Difference between combined therapy and mono-therapies in peak change in FEV1 over 12 hours, LS mean (COPD patients [1]; [5]): 0.11 L
Difference between combined therapy and mono-therapies in peak change in FVC over 12 hours, LS mean (COPD patients [1]; [5]): 0.20 L
Change in trough FEV1, mean (SD) (COPD patients [1]; ITT, week 2, trough = 24 hour time point after morning dose): 0.08 (0.21) L
Difference between combined therapy and mono-therapies in change in FEV1AUC0-24, LS mean (COPD patients [1]; [6]): 0.16 L
Difference between combined therapy and mono-therapies in peak change in FEV1 over 12 hours, LS mean (COPD patients [1]; [6]): 0.14 L
Difference between combined therapy and mono-therapies in peak change in FVC over 12 hours, LS mean (COPD patients [1]; [6]): 0.28 L
Difference between combined therapy and mono-therapies in trough FEV1, LS mean (COPD patients [1]; [6]): 0.10 L
Peak Change in FEV1 over 12 hours, mean (SD) (COPD patients [1]; [7]): 0.29 (0.26) L
Peak change in FVC over 12 hours, mean (SD) (COPD patients [1]; [7]): 0.43 (0.37) L
Trough FEV1 (change in FEV1 at 24 hours post-dose), mean (SD) (COPD patients [1]; [7]): 0.11 (0.22) L
Change in FEV1AUC0-24, mean (SD) (COPD patients [1]; baseline percent predicted FEV1 <50%, week 2 from study baseline (pre-dose week 0)): 0.10 (0.22) L
Difference between combined therapy and mono-therapies in change in FEV1AUC0-24, LS mean (COPD patients [1]; [8]): 0.12 L
Difference between combined therapy and mono-therapies in peak change in FEV1 over 12 hours, LS mean (COPD patients [1]; [8]): 0.09 L
Difference between combined therapy and mono-therapies in peak change in FVC over 12 hours, LS mean (COPD patients [1]; [8]): 0.08 L
Difference between combined therapy and mono-therapies in trough FEV1, LS mean (COPD patients [1]; [8]): 0.04 L
Peak Change in FEV1 over 12 hours, mean (SD) (COPD patients [1]; [9]): 0.23 (0.16) L
Peak change in FVC over 12 hours, mean (SD) (COPD patients [1]; [9]): 0.34 (0.28) L
Trough FEV1 (change in FEV1 at 24 hours post-dose), mean (SD) (COPD patients [1]; [9]): 0.03 (0.17) L
Change in FEV1AUC0-24, mean (SD) (COPD patients [1]; baseline percent predicted FEV1 ≧50%, week 2 from study baseline (pre-dose week 0)): 0.05 (0.14) L
mean improvement in peak FVC (COPD patients [1]; from baseline after 2 weeks of treatment): 40 mL
LS mean (±SE) peak improvement in FEV1 from visit pre-dose (COPD patients [1]; from visit pre-dose): 0.19 L
Number of actuations per day, mean (SD) (COPD patients [2]; [10]): −1.8 (3.3) actuations per day
Used levalbuterol, n (%) (COPD patients [2]; [10]): 48 (94.1) n (%)
Used levalbuterol, n (%) (COPD patients [2]; ITT, week 2): 38 (47.5) n (%)
Number of actuations per day, mean (SD) (COPD patients [2]; [11]): −1.8 (2.8) actuations per day
Number of days per week, mean (SD) (COPD patients [2]; [11]): −2.2 (2.7) days per week
Number of actuations per day, mean (SD) (COPD patients [2]; [12]): −1.9 (1.8) actuations per day
Used levalbuterol, n (%) (COPD patients [2]; [12]): 27 (96.4) n (%)
Any adverse event, n (%) (COPD patients [3]): 22 (27.5) n (%)
COPD exacerbations (COPD patients [3]): 0 n (%)
Discontinued due to adverse events, n (%) (COPD patients [3]): 1 (1.3) n (%)
Overall cardiovascular adverse events, n (%) (COPD patients [3]): 1 (1.3) n (%)
Serious adverse events, n (%) (COPD patients [3]): 0 n (%)
